{"source": "patent US10617697B2", "about": "“Extracts of edible fungi enriched in vitamin D and compostions thereof and their use in the treatment of immune-related disorders” (GAVISH-GALILEE BIO APPLICATIONS LTD, priority 2015, dated 2020)", "system": "immune-mediated hepatitis harboring mice", "assay": "ConA hepatitis in mice, serum liver enzymes after oral pre-treatment", "format": "in vivo, C57BL/6 mice", "settings": "for ALT serum levels: serum 16 hours after ConA", "protocol": "Male C57BL/6 mice (11-12 weeks old) were obtained from Harlan Laboratories (Jerusalem, Israel) and maintained in the Animal Core of the Hadassah-Hebrew University Medical School. Mice were administered standard laboratory chow and water ad libitum and kept in a 12 hour light/dark cycle. Animal experiments were carried out according to the guidelines of the Hebrew University-Hadassah Institutional Committee for Care and Use of Laboratory Animals and with the committee's approval.\nConcanavalin A (ConA, MP Biomedicals, USA) was dissolved in 50 mM Tris pH 7, 150 mM NaCl, 4 mM CaCl2 and was injected into the tail vein at a dose of 500 μg/mouse (15 mg/kg) in the first experiment, and 400 μg/mouse in the second experiment. Mice were sacrificed 16 hours following ConA injection. Blood and liver tissue were collected for further analysis\nTwo consecutive experiments were conducted. In the first study, 4 groups of mice were studied (n=5-6 mice/group). Mice in control group were treated 2 hours before ConA injection with DDW (di distilled water). The first treated group received vitamin D oral supplement (1 IU of vitamin D in saline) twice daily for 3 days prior to Concanavalin A-induced immune liver damage. The second treated group was treated orally with crude freeze-dried biomass derived from Lentinula edodes (LE) edible mushrooms (7.5 mg of mushrooms) at the same timing and frequency, while the third treated group was treated with vitamin D enriched LE (7.5 mg of freeze-dried mushrooms containing 1.125 IU of vitamin D). In a subsequent study, four groups of mice (n=5-7 mice/group) were treated by the same protocol detailed above, but the frequency of the oral treatment was increased from two to three times daily.\nSerum was obtained from individual mice after sacrifice. The serum aspartate aminotransferase (AST) and alanine aminotransferase (ALT) levels were determined with an automatic analyzer.", "data": [{"compound": "C=C1CC[C@H](O)C/C1=C/C=C1\\CCC[C@]2(C)[C@@H]([C@H](C)/C=C/[C@H](C)C(C)C)CC[C@@H]12", "note": "[vitamin D, ergocalciferol]", "values": [{"measurement": "proportion of severe liver injury (defined as ALT>2611 U/L)", "setting": "first experiment, oral twice daily for 3 days before ConA", "value": 60, "unit": "%"}, {"measurement": "ALT serum levels", "setting": "first experiment, oral twice daily for 3 days before ConA 500 μg/mouse", "value": 2802, "unit": "U/L"}, {"measurement": "proportion of severe liver injury (defined as ALT >2000 U/L)", "setting": "second experiment, oral three times daily for 3 days before ConA", "value": 100, "unit": "%"}, {"measurement": "proportion of severe liver injury by AST (defined as AST>2000 U/L)", "setting": "second experiment, oral three times daily for 3 days before ConA, data not shown", "value": 100, "unit": "%"}, {"measurement": "ALT serum levels", "setting": "second study, oral three times daily for 3 days before ConA 400 μg/mouse", "value": 4040, "unit": "U/L"}]}]}
